Measured values published in US7872051B2 (priority 2004, dated 2011).
Where two headings read alike, the source gives them in different places.

Assays:
Solubility in water = format: physicochemical
[1] = test system: HSV-1 (Herpes Simplex Virus type 1); test: Trial 2 virucidal assay, HSV-1 on Vero cells; format: cell-based; settings: for Kill rate: gradient between the 1 minute and 5 minute time-points (FIG. 2)
Vero cells = settings: 5 min exposure, count after 24 h vs cell only control, rounded to nearest 5
Description: (§1) PMD was tested at the following concentrations: • 2% w/v (20 mg/ml) • 1% w/v (10 mg/ml) • 0.5% w/v (5 mg/ml • 0.25% w/v (2.5 mg/ml)
(§2) Each PMD concentration was made up in 100% isopropyl and then sufficient cell infection media added such that the final concentration of isopropyl was always 10%.
(§3) The different concentrations were made up by taking into account the initial dilution of the compound that occurs in the toxicity assay (step 1) and virucidal assay (step 4). The dilution factors for both assays are 2 and 1.1, respectively.
(§4) Each of the four PMD concentrations was tested for toxicity on each of the three cell lines.
(§5) A “cell only” control was also implemented by following the same procedure but substituting PMD (step 1) with infection media.
(§6) The procedure for the toxicity assay was as follows: • 1) Cells (200 μl), at 2×10^6 cells/ml, were added to PMD (200 μl) and the reaction incubated for 5 minutes at room temperature. • 2) The reaction was terminated by the addition of infection media (3.6 ml) appropriate to the cell line. • 3) The terminated reaction (1 ml) was added, in triplicate, to the relevant wells of a 24-well plate. • 4) The cells were incubated for 24 hours at 37° C., 5% CO2. • 5) After the incubation period, the cells were trypsinised, the appropriate triplicate wells pooled together and a viable cell count performed using Trypan blue dye. • 6) The toxicity of PMD was determined by calculating the percentage cell survival of the test cells in comparison to the control cells.

MDCK cells [2] = settings: 5 min exposure, count after 24 h vs cell only control, rounded to nearest 5
Description: as §1, §2, §3, §4, §5, §6

C1008 cells = settings: 5 min exposure, count after 24 h vs cell only control, rounded to nearest 5
Description: as §1, §2, §3, §4, §5, §6

MDCK cells [3] = test: Trial 1 acute toxicity assay of PMD; settings: PMD 2%, 0.5%, 0.25% and 0.1% w/v
Description: The toxicity of PMD at the following concentrations in cell maintenance media was determined on a cell line with MDCK cells: • 2.5 mg/ml (0.25% w/v) • 5 mg/ml (0.5% w/v) • 20 mg/ml (2% w/v)
A cell only control was also implemented by following the same procedure (steps 2-6), but substituting PMD with cell maintenance media.
Toxicity was determined by toxicity-induced CPE (cytopathic effect) observations, which was visually scored using microscopy techniques. Toxicity-induced CPE is characterised by burst or rounded cells, which have become dissociated from their neighbouring cells, or the presence of cellular debris. […]

[4] = test system: influenza virus A/Sydney/5/97; test: Trial 1 virucidal assay of PMD (CPE on MDCK cells); format: cell-based
[5] = test system: A/Sydney/5/97 (human influenza virus H3N2); test: Trial 2 virucidal assay, A/Sydney/5/97 on MDCK cells; format: cell-based; settings: for Kill rate: line gradient of FIG. 4
Urbani SARS = format: cell-based, Urbani SARS virus; settings: for Kill rate: line gradient of FIG. 3

CC1CCC(C(C)(C)O)C(O)C1 (stereo not drawn) [PMD, p-menthane-3,8-diol]
Solubility in water (Solubility in water): poorly soluble
Effectiveness against the virus ([1]; HSV-1): effective
Log reduction in viral titre ([1]; HSV-1, PMD 0.25% w/v, contact time 10 seconds): 0 −log10 TCID50/ml
Log reduction in viral titre ([1]; HSV-1, PMD 0.25% w/v, contact time 30 seconds): 0 −log10 TCID50/ml
Log reduction in viral titre ([1]; HSV-1, PMD 0.25% w/v, contact time 60 seconds (1 minute)): 0 −log10 TCID50/ml
Log reduction in viral titre ([1]; HSV-1, PMD 0.25% w/v, contact time 300 seconds (5 minutes)): 0.5 −log10 TCID50/ml
Log reduction in viral titre ([1]; HSV-1, PMD 0.5% w/v, contact time 10 seconds): 0 −log10 TCID50/ml
Log reduction in viral titre ([1]; HSV-1, PMD 0.5% w/v, contact time 30 seconds): 0 −log10 TCID50/ml
Log reduction in viral titre ([1]; HSV-1, PMD 0.5% w/v, contact time 60 seconds (1 minute)): 0 −log10 TCID50/ml
Log reduction in viral titre ([1]; HSV-1, PMD 0.5% w/v, contact time 300 seconds (5 minutes)): 0 −log10 TCID50/ml
Log reduction in viral titre ([1]; HSV-1, PMD 1% w/v, contact time 10 seconds): 0 −log10 TCID50/ml
Log reduction in viral titre ([1]; HSV-1, PMD 1% w/v, contact time 30 seconds): 0.5 −log10 TCID50/ml
Log reduction in viral titre ([1]; HSV-1, PMD 1% w/v, contact time 60 seconds (1 minute)): 0.5 −log10 TCID50/ml
Log reduction in viral titre ([1]; HSV-1, PMD 1% w/v, contact time 300 seconds (5 minutes)): 1.5 −log10 TCID50/ml
Kill rate ([1]; HSV-1, PMD 1% w/v): 0.3 −log10 TCID50/ml/min
Log reduction in viral titre ([1]; HSV-1, PMD 2% w/v, contact time 10 seconds): 0 −log10 TCID50/ml
Log reduction in viral titre ([1]; HSV-1, PMD 2% w/v, contact time 30 seconds): 0 −log10 TCID50/ml
Log reduction in viral titre ([1]; HSV-1, PMD 2% w/v, contact time 60 seconds (1 minute)): 0.5 −log10 TCID50/ml
Log reduction in viral titre ([1]; HSV-1, PMD 2% w/v, contact time 300 seconds (5 minutes)): 2.5 −log10 TCID50/ml
Kill rate ([1]; HSV-1, PMD 2% w/v): 0.5 −log10 TCID50/ml/min
Antiviral activity ([1]; PMD 0.25% w/v and 0.5% w/v): did not exhibit any antiviral activity
Reduction in viral titre (significance) ([1]; PMD 1% w/v and 2% w/v, 5 minute contact time): Significant reduction in viral titre
Reduction in viral titre (significance) ([1]; all other concentrations and contact times): no significant reduction in viral titre
PMD concentration desirable for a significant effect ([1]; contact time of 5 minutes): at least 1 % w/v
Percentage cell survival (Vero cells; PMD 0.25% w/v): 65%
Percentage cell survival (Vero cells; PMD 0.5% w/v): 65%
Percentage cell survival (Vero cells; PMD 2% w/v): 100%
Percentage cell survival (MDCK cells [2]; PMD 0.25% w/v): 40%
Percentage cell survival (MDCK cells [2]; PMD 0.5% w/v): 100%
Percentage cell survival (MDCK cells [2]; PMD 2% w/v): 85%
Percentage cell survival (C1008 cells; C1008, PMD 0.25% w/v): 80%
Percentage cell survival (C1008 cells; C1008, PMD 0.5% w/v): 60%
Percentage cell survival (C1008 cells; C1008, PMD 2% w/v): 100%
Toxicity on MDCK cells (MDCK cells [3]): do not exhibit toxicity
Viral replication as evidenced by cell survival [4]: no viral replication
Virucidal effect ([4]; PMD 0.5%, 0.25% and 0.1%, MDCK cells (cells were killed)): no virucidal effect
PMD concentration desirable for a significant antiviral action ([5]; 10 seconds' contact time): at least 1 % w/v
Log reduction in viral titre ([5]; A/Sydney/5/97, PMD 0.25% w/v, contact time 10 seconds): 0.4 −log10 TCID50/ml
Log reduction in viral titre ([5]; A/Sydney/5/97, PMD 0.25% w/v, contact time 30 seconds): 1.9 −log10 TCID50/ml
Log reduction in viral titre ([5]; A/Sydney/5/97, PMD 0.25% w/v, contact time 60 seconds (1 minute)): 1.9 −log10 TCID50/ml
Log reduction in viral titre ([5]; A/Sydney/5/97, PMD 0.25% w/v, contact time 300 seconds (5 minutes)): 1.4 −log10 TCID50/ml
Kill rate ([5]; A/Sydney/5/97, PMD 0.25% w/v): 4.5 −log10 TCID50/ml/min
Log reduction in viral titre ([5]; A/Sydney/5/97, PMD 0.5% w/v, contact time 10 seconds): 0.4 −log10 TCID50/ml
Log reduction in viral titre ([5]; A/Sydney/5/97, PMD 0.5% w/v, contact time 30 seconds): 1.9 −log10 TCID50/ml
Log reduction in viral titre ([5]; A/Sydney/5/97, PMD 0.5% w/v, contact time 60 seconds (1 minute)): 2.4 −log10 TCID50/ml
Log reduction in viral titre ([5]; A/Sydney/5/97, PMD 0.5% w/v, contact time 300 seconds (5 minutes)): 1.9 −log10 TCID50/ml
Kill rate ([5]; A/Sydney/5/97, PMD 0.5% w/v): 4.8 −log10 TCID50/ml/min
Log reduction in viral titre ([5]; A/Sydney/5/97, PMD 1% w/v, contact time 10 seconds): 1.9 −log10 TCID50/ml
Log reduction in viral titre ([5]; A/Sydney/5/97, PMD 1% w/v, contact time 30 seconds): 2.4 −log10 TCID50/ml
Log reduction in viral titre ([5]; A/Sydney/5/97, PMD 1% w/v, contact time 60 seconds (1 minute)): 2.4 −log10 TCID50/ml
Log reduction in viral titre ([5]; A/Sydney/5/97, PMD 1% w/v, contact time 300 seconds (5 minutes)): 2.4 −log10 TCID50/ml
Kill rate ([5]; A/Sydney/5/97, PMD 1% w/v): 12.0 −log10 TCID50/ml/min
Log reduction in viral titre ([5]; A/Sydney/5/97, PMD 2% w/v, contact time 10 seconds): 1.9 −log10 TCID50/ml
Log reduction in viral titre ([5]; A/Sydney/5/97, PMD 2% w/v, contact time 30 seconds): 2.4 −log10 TCID50/ml
Log reduction in viral titre ([5]; A/Sydney/5/97, PMD 2% w/v, contact time 60 seconds (1 minute)): 2.4 −log10 TCID50/ml
Log reduction in viral titre ([5]; A/Sydney/5/97, PMD 2% w/v, contact time 300 seconds (5 minutes)): 2.4 −log10 TCID50/ml
Kill rate ([5]; A/Sydney/5/97, PMD 2% w/v): 12.0 −log10 TCID50/ml/min
Reduction of viral titre ([5]; PMD 1% w/v and 2% w/v, all contact time points): 1.9-2.4 log10 TCID50/ml
Reduction of infection (significance) ([5]; all concentrations tested, except 0.25% w/v and 0.5% w/v at the 10 second contact time): significantly reduces
Effectiveness against the virus ([5]; influenza virus A/Sydney/5/97): effective
Reduction of viral titre ([5]; the two lower concentrations (0.25%, 0.5% w/v), 30 second to 5 minute contact times): 1.9-2.4 log10 TCID50/ml
Antiviral effect (Urbani SARS; PMD 0.25%, 10 seconds' exposure): effective
Effectiveness against the virus (Urbani SARS; Urbani SARS): effective
Log reduction in viral titre (Urbani SARS; Urbani SARS, PMD 0.25% w/v, contact time 10 seconds): 1 −log10 TCID50/ml
Log reduction in viral titre (Urbani SARS; Urbani SARS, PMD 0.25% w/v, contact time 30 seconds): 2 −log10 TCID50/ml
Log reduction in viral titre (Urbani SARS; Urbani SARS, PMD 0.25% w/v, contact time 60 seconds (1 minute)): 1.5 −log10 TCID50/ml
Log reduction in viral titre (Urbani SARS; Urbani SARS, PMD 0.25% w/v, contact time 300 seconds (5 minutes)): 2 −log10 TCID50/ml
Kill rate (Urbani SARS; Urbani SARS, PMD 0.25% w/v): 4.0 −log10 TCID50/ml/min
Log reduction in viral titre (Urbani SARS; Urbani SARS, PMD 0.5% w/v, contact time 10 seconds): 1.5 −log10 TCID50/ml
Log reduction in viral titre (Urbani SARS; Urbani SARS, PMD 0.5% w/v, contact time 30 seconds): 2.5 −log10 TCID50/ml
Log reduction in viral titre (Urbani SARS; Urbani SARS, PMD 0.5% w/v, contact time 60 seconds (1 minute)): 2.5 −log10 TCID50/ml
Log reduction in viral titre (Urbani SARS; Urbani SARS, PMD 0.5% w/v, contact time 300 seconds (5 minutes)): 2.5 −log10 TCID50/ml
Kill rate (Urbani SARS; Urbani SARS, PMD 0.5% w/v): 6.0 −log10 TCID50/ml/min
Log reduction in viral titre (Urbani SARS; Urbani SARS, PMD 1% w/v, contact time 10 seconds): 2 −log10 TCID50/ml
Log reduction in viral titre (Urbani SARS; Urbani SARS, PMD 1% w/v, contact time 30 seconds): 1.5 −log10 TCID50/ml
Log reduction in viral titre (Urbani SARS; Urbani SARS, PMD 1% w/v, contact time 60 seconds (1 minute)): 2 −log10 TCID50/ml
Log reduction in viral titre (Urbani SARS; Urbani SARS, PMD 1% w/v, contact time 300 seconds (5 minutes)): 1.5 −log10 TCID50/ml
Kill rate (Urbani SARS; Urbani SARS, PMD 1% w/v): 6.0 −log10 TCID50/ml/min
Log reduction in viral titre (Urbani SARS; Urbani SARS, PMD 2% w/v, contact time 10 seconds): 1.5 −log10 TCID50/ml
Log reduction in viral titre (Urbani SARS; Urbani SARS, PMD 2% w/v, contact time 30 seconds): 1 −log10 TCID50/ml
Log reduction in viral titre (Urbani SARS; Urbani SARS, PMD 2% w/v, contact time 60 seconds (1 minute)): 1.5 −log10 TCID50/ml
Log reduction in viral titre (Urbani SARS; Urbani SARS, PMD 2% w/v, contact time 300 seconds (5 minutes)): 1.5 −log10 TCID50/ml
Kill rate (Urbani SARS; Urbani SARS, PMD 2% w/v): 6.0 −log10 TCID50/ml/min
Reduction in viral titre (significance) (Urbani SARS; all four concentrations, all contact times): significant reductions in viral titre
